For one series, the system named is Tetranychus urticae. In words: Tetranychus urticae spray test, OP-resistant (TETRUR). Type of series: in vivo. The following applies: application rate of 500 g/ha, after 6 days; for pest or weed control at 500 g/ha: Tetranychus urticae, 144 h, read-out: efficacy. The method, boiled down:
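Bean leaf discs infested with all stages of an OP-resistant Tetranychus urticae strain sprayed with compound in acetone/DMF with alkylaryl polyglycol ether emulsifier, diluted in water. Efficacy in % scored after 6 days; 100% means all mites killed.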

The next series deals with Boophilus microplus. In words: Boophilus microplus injection test (BOOPMI Inj). The settings on record: application rate of 20 μg/animal, assessed after 7 days by laying of fertile eggs. Type of series: in vivo. On the procedure: Use Examples Boophilus microplus Injection Test (BOOPMI Inj) • Solvent: dimethyl sulphoxide
To prepare an appropriate active ingredient formulation, 10 mg of active ingredient are mixed with 0.5 ml of solvent and the concentrate is diluted with solvent to the desired concentration.
1 μl of the active ingredient solution is injected into the abdomen of 5 engorged adult female cattle ticks (Boophilus microplus). The animals are transferred into dishes and kept in a climate-controlled room.
The efficacy is assessed after 7 days by laying of fertile eggs. Eggs which are not visibly fertile are stored in a climate-controlled cabinet until the larvae hatch after about 42 days.
An efficacy of 100% means that none of the ticks has laid any fertile eggs; 0% means that all the eggs are fertile.

Series [1] can be described thus: log P by HPLC (OECD Guideline 117), method [a] acidic range. The series is classed as physicochemical. The settings on record: for chromatographic logP: reversed-phase C18 HPLC column, acidic range; for logP[a]: HPLC, method [a] acidic range. On the procedure:
(§1) The log P values were determined analogously to OECD Guideline 117 (EC Directive 92/69/EEC) by HPLC (high-performance liquid chromatography) using reversed-phase columns (C 18), by the following methods:
[a] The LC-MS determination in the acidic range is effected at pH 2.7 with 0.1% aqueous formic acid and acetonitrile (contains 0.1% formic acid) as eluents; linear gradient from 10% acetonitrile to 95% acetonitrile.

Series [2] in a line: log P by HPLC (OECD Guideline 117), method [b] neutral range. The settings on record: HPLC; for chromatographic logP: reversed-phase C18 HPLC column, neutral range, pH 7.8; for logP[b]: method [b] neutral range. The series is classed as physicochemical. On the procedure: as §1
[b] The LC-MS determination in the neutral range is effected at pH 7.8 with 0.001 molar aqueous ammonium hydrogencarbonate solution and acetonitrile as eluents; linear gradient from 10% acetonitrile to 95% acetonitrile.

The mark [3] stands for this setting: pH 2.7, HPLC method [a], read-out: logP[a].
[4] abbreviates: pH 2.7, HPLC, pH 2.7, read-out: log P[a].

We go through 30 compounds from patent US9981940B2, “Aryl sulfide derivatives and aryl sulfoxide derivatives as acaricides and insecticides” (BAYER CROPSCIENCE AKTIENGESELLSCHAFT, priority 2013, dated 2018).

`Cc1cc(F)c(-n2nc(Br)n(C(C)C)c2=O)cc1[S+]([O-])CC(F)(F)F` (stereo not drawn) [Example 442, 5-Bromo-2-{2-fluoro-4-methyl-5-[(2,2,2-trifluoroethyl)sulphinyl]phenyl}-4-isopropyl-2,4-dihydro-3H-1,2,4-triazol-3-one]: in the series on Tetranychus urticae, the pest or weed control at 500 g/ha was 100%. The compound also returned an efficacy in the series with Boophilus microplus of 100%. For the same compound, the values for the chromatographic logP in series [1] (setting [3]), in series [1] (setting [4]) and in series [2] were 2.68, 2.68 and 2.62, respectively.

Consider `Cc1cc(F)c(-n2nc([S+](C)[O-])n(C3CC3)c2=O)cc1[S+]([O-])CC(F)(F)F` (stereo not drawn) [Example 231], for which the efficacy in the series on Tetranychus urticae and in the series on Boophilus microplus was 100% in each case. The “logP[a]” value in series [1] stood at 1.61. Moreover, the “logP[b]” value in series [2] is reported as 1.58.

Turning to `Cc1cc(F)c(-n2nc(C(F)(F)F)n(N)c2=O)cc1[S+]([O-])CC(F)(F)F` (stereo not drawn) [Example 215], the efficacy in the series on Tetranychus urticae and with Boophilus microplus was 100% throughout. In addition, in series [1], the “logP[a]” value turned out to be 2.19. Besides, the “logP[b]” value in series [2] amounted to 2.17.

As for `Cc1cc(F)c(-n2nc(OC(C)(C)C)n(C)c2=O)cc1SCC(F)(F)F` [Example 157], the efficacy with Tetranychus urticae and in the series on Boophilus microplus was 100% throughout. Further, in series [1], the “logP[a]” value amounted to 3.98. Also, the “logP[b]” value in series [2] was found to be 3.88.

As for `Cc1cc(Cl)c([S+]([O-])CC(F)(F)F)cc1-n1nc(OCC(F)(F)F)n(C2CC2)c1=O` (racemic) [Example 384], the efficacy in the series with Tetranychus urticae and in the series with Boophilus microplus was 100% in each case. Moreover, in series [1], the “logP[a]” value is listed as 3.06. Moreover, the “logP[b]” value in series [2] worked out at 2.97.

With `Cc1cc(C)c([S+]([O-])CC(F)(F)F)cc1-n1nc(OCC(F)(F)F)n(C2CC2)c1=O` (racemic) [Example 381], the efficacy in the series on Tetranychus urticae was found to be 90%; in the series on Boophilus microplus, 100%. Besides, the “logP[a]” value in series [1] is recorded as 2.88. In series [2], the “logP[b]” value worked out at 2.94.

`Cn1c(C(F)(F)F)nn(-c2cc(SCC(F)(F)F)c(C#N)cc2F)c1=O` [Example 38]: the efficacy in the series on Tetranychus urticae and in the series with Boophilus microplus was 100% in each case. Further, the “logP[a]” value in series [1] was 3.09. Besides, the “logP[b]” value in series [2] is given as 3.08.

`CCn1c([S+]([O-])CC)nn(-c2cc(SCC(F)(F)F)c(C)cc2F)c1=O` (stereo not drawn) [Example 253]: the efficacy in the series with Tetranychus urticae and in the series on Boophilus microplus was 100% in each case. Further, the “logP[a]” value in series [1] turned out to be 2.84. Further, in series [2], the “logP[b]” value is reported as 2.81.

As for `CCn1c(OCC(F)(F)F)nn(-c2cc([S+]([O-])CC(F)(F)F)c(C)cc2F)c1=O` (stereo not drawn) [Example 406], the efficacy in the series with Tetranychus urticae is 90%; with Boophilus microplus it was 100%. Moreover, the “logP[a]” value in series [1] was found to be 2.82. Also, the “logP[b]” value in series [2] worked out at 2.78.

Take `Cc1cc(F)c(-n2nc(OC(C)C)n(C3CC3)c2=O)cc1SCC(F)(F)F` [Example 101]: the efficacy in the series on Tetranychus urticae and with Boophilus microplus was 100% each time. Moreover, the “logP[a]” value in series [1] amounted to 3.93. Further, the “logP[b]” value in series [2] was 3.85.

Turning to `Cc1cc(F)c(-n2nc(Br)n(C(C)C)c2=O)cc1SCC(F)(F)F` [Example 439, 5-Bromo-2-{2-fluoro-4-methyl-5-[(2,2,2-trifluoroethyl)sulphanyl]phenyl}-4-isopropyl-2,4-dihydro-3H-1,2,4-triazol-3-one], in the series on Tetranychus urticae, the pest or weed control at 500 g/ha turned out to be 100%. This compound also yielded an efficacy in the series on Boophilus microplus of 100%. The chromatographic logP turned out to be 3.83 in series [1] (setting [3]), 3.83 in series [1] (setting [4]) and 3.8 in series [2].

With `Cc1cc(F)c(-n2nc(C(F)(F)F)n(C3CC3)c2=O)cc1[S+]([O-])CC(F)(F)F` (stereo not drawn) [Example 60], the values for the efficacy with Tetranychus urticae and with Boophilus microplus were 90% and 100%, respectively. Besides, the “logP[a]” value in series [1] is 2.93. The “logP[b]” value in series [2] is 2.82.

On to `COc1cc(F)c(-n2nc(OCC(F)(F)F)n(C3CC3)c2=O)cc1[S+]([O-])CC(F)(F)F` (racemic) [Example 385], for which the efficacy with Boophilus microplus was 100%. Further, the “logP[a]” value in series [1] is 2.80. Moreover, the “logP[b]” value in series [2] was determined as 2.74.

Regarding `COc1nn(-c2cc(SCC(F)(F)F)c(C)cc2F)c(=O)n1CC(F)(F)F` [Example 393], the efficacy in the series on Tetranychus urticae and in the series on Boophilus microplus was 100% in each case. Also, in series [1], the “logP[a]” value is listed as 3.50. For the same compound, the “logP[b]” value in series [2] is listed as 3.47.

For `Cc1ccc(-n2nc(OCC(F)(F)F)n(C3CC3)c2=O)cc1SCC(F)(F)F` [Example 92], the efficacy in the series with Tetranychus urticae and in the series with Boophilus microplus was 100% in each case. For the same compound, the “logP[a]” value in series [1] stood at 4.29. Moreover, the “logP[b]” value in series [2] was 4.20.

On to `Cc1cc(F)c(-n2nc(Br)n(C3CC3)c2=O)cc1[S+]([O-])CC(F)(F)F` (racemic) [Example 295], for which the efficacy in the series on Tetranychus urticae and in the series with Boophilus microplus was 100% throughout. In addition, the “logP[a]” value in series [1] came out at 2.39. In series [2], the “logP[b]” value is listed as 2.34.

As for `COc1nn(-c2cc([S+]([O-])CC(F)(F)F)c(C)cc2C)c(=O)n1C1CC1` (stereo not drawn) [Example 119], the efficacy is reported as 90% in the series on Tetranychus urticae and 100% in the series with Boophilus microplus. Also, the “logP[a]” value in series [1] was 2.21. Moreover, the “logP[b]” value in series [2] was found to be 2.17.

For `COCc1nn(-c2cc([S+]([O-])CC(F)(F)F)c(C)cc2F)c(=O)n1C1CC1` (stereo not drawn) [Example 45], the efficacy in the series with Tetranychus urticae and with Boophilus microplus was 100% throughout. Besides, the “logP[a]” value in series [1] was 1.99. Also, the “logP[b]” value in series [2] worked out at 1.96.

Take `Cc1cc(F)c(-n2nc(C(F)(F)F)n(C)c2=O)cc1[S+]([O-])CC(F)(F)F` (stereo not drawn) [Example 12, 2-{2-Fluoro-4-methyl-5-[(2,2,2-trifluoroethyl)sulphinyl]phenyl}-4-methyl-5-(trifluoromethyl)-2,4-dihydro-3H-1,2,4-triazol-3-one]: in the series with Tetranychus urticae, the pest or weed control at 500 g/ha stood at 100%. Moreover, the chromatographic logP in series [1] (setting [3]) is 2.52; in series [1] (setting [4]) it was 2.52; in series [2] it was 2.46.

`C=CCn1c(C(F)(F)F)nn(-c2cc([S+]([O-])CC(F)(F)F)c(C)cc2F)c1=O` (stereo not drawn) [Example 364] returned an efficacy with Tetranychus urticae of 90%. Besides, the “logP[a]” value in series [1] is 3.00. In series [2], the “logP[b]” value amounted to 2.96.

On to `Cc1cc(F)c(-n2nc(SCC(F)F)n(C3CC3)c2=O)cc1[S+]([O-])CC(F)(F)F` (stereo not drawn) [Example 256], for which, in the series with Tetranychus urticae, the efficacy is on record as 90%. The “logP[a]” value in series [1] turned out to be 2.73. Moreover, in series [2], the “logP[b]” value stood at 2.69.

Regarding `Cc1ccc(-n2nc(OCC(C)(C)C)n(C)c2=O)cc1[S+]([O-])CC(F)(F)F` (stereo not drawn) [Example 162], the efficacy in the series with Tetranychus urticae turned out to be 90%. The “logP[a]” value in series [1] is 3.67. Also, the “logP[b]” value in series [2] stood at 3.57.

As for `Cc1cc(F)c(-n2nc(OC(C)(C)C)n(C)c2=O)cc1[S+]([O-])CC(F)(F)F` (stereo not drawn) [Example 184], the efficacy in the series on Tetranychus urticae is recorded as 100%. In addition, in series [1], the “logP[a]” value is 2.82. Besides, the “logP[b]” value in series [2] was 2.76.

For the compound `COc1nn(-c2ccc(C(F)(F)F)c(SCC(F)(F)F)c2)c(=O)n1C1CC1` [Example 144], the efficacy with Tetranychus urticae is given as 90%. The “logP[a]” value in series [1] stood at 4.14. For the same compound, the “logP[b]” value in series [2] is recorded as 3.85.

With `Cc1cc(F)c(-n2nc(C3CCCC3)n(C3CC3)c2=O)cc1[S+]([O-])CC(F)(F)F` (stereo not drawn) [Example 360], the efficacy in the series with Tetranychus urticae amounted to 90%. Further, in series [1], the “logP[a]” value is 3.06. Besides, the “logP[b]” value in series [2] came to 3.03.

For the compound `Cc1cc(F)c(-n2c(C)c(C)sc2=NCC(F)(F)F)cc1SCC(F)(F)F` [Example 343, 2,2,2-Trifluoro-N-[3-{2-fluoro-4-methyl-5-[(2,2,2-trifluoroethyl)sulphanyl]phenyl}-4,5-dimethyl-1,3-thiazol-2(3H)-ylidene]ethanamine], the pest or weed control at 500 g/ha with Tetranychus urticae turned out to be 100%. For the same compound, the chromatographic logP in series [1] (setting [3]) is 3.02; in series [1] (setting [4]), 3.02; in series [2], 4.91.

`Cc1cc(F)c(-n2nc(OCc3ccccc3)n(C3CC3)c2=O)cc1[S+]([O-])CC(F)(F)F` (stereo not drawn) [Example 414] returned an efficacy in the series with Tetranychus urticae of 100%. Moreover, the “logP[a]” value in series [1] is on record as 3.24. For the same compound, the “logP[b]” value in series [2] was found to be 3.19.

In the series on Tetranychus urticae, `Cc1cc(F)c(-n2nc(C(C)C)n(C3CC3)c2=O)cc1SCC(F)(F)F` [Example 44] gave an efficacy of 100%. The “logP[a]” value in series [1] is listed as 3.59. The “logP[b]” value in series [2] turned out to be 3.52.

Regarding `Cc1cc(F)c(-n2nc(C(C)C)n(N)c2=O)cc1[S+]([O-])CC(F)(F)F` (stereo not drawn) [Example 204], the efficacy in the series on Tetranychus urticae came to 100%. The “logP[a]” value in series [1] came to 1.96. For the same compound, the “logP[b]” value in series [2] is given as 1.95.

The compound `CCC(C)Oc1nn(-c2cc([S+]([O-])CC(F)(F)F)c(C)cc2F)c(=O)n1C1CC1` (stereo not drawn) [Example 141] gave an efficacy in the series with Tetranychus urticae of 90%. Further, the “logP[a]” value in series [1] was 3.18. The “logP[b]” value in series [2] was determined as 3.12.
